Source: US6878689B2, “Preventives or remedies for heart failure” (Kaken Pharmaceutical Co., Ltd., priority 2000, dated 2005)
Where a SMILES comes first, the peptide text is derived from it. [ ]: non-standard residue; d: D form. d2Nal = N[C@H](Cc1ccc2ccccc2c1)C(=O)O

Test system: dogs with occluded anterior descending coronary artery
Test: Effect of intravenously administered pralmorelin on cardiac function of dog with anterior descending coronary artery occlusion
Type: in vivo
Settings: 100 μg/kg i.v.
Protocol: [Test Example 3] Effect of Intravenously Administered Pralmorelin on the Cardiac Function of Dog with a Model of Anterior Descending Coronary Artery Occlusion
Using a dog model of acute contractile dysfunction caused by occlusion of the anterior descending coronary artery, the inventors studied the cardiotonic action of pralmorelin.
The action of pralmorelin on the cardiac dysfunction deteriorated by occlusion of the coronary artery was evaluated by various hemodynamic parameters, cardiac output (CO), stroke volume (SV), maximal positive dP/dt of left ventricular pressure (+dP/dtmax), ejection fraction (EF), mean blood pressure (MBP), heart rate (HR), total peripheral resistance (TPR) and double product (RPP) as an index of myocardial oxygen consumption. • 1. Test Materials and Method • 1) Test Substance and Reagents • (1) Control
Pralmorelin dihydrochloride (hereunder referred to as KP-102) (prepared by the method described in WO 9304081) was dissolved in distilled water to prepare a 0.5 mg/mL solution. • (3) Reagents
In the experiment, adult beagles of either sex (weighing 9-11 kg) purchased from Nihon Nosan Kogyo K.K. (Kanagawa, Japan) were used. After arrival, the animals were allowed to eat a solid meal (CD-5, CLEA Japan, Inc. or Labo D Stock, Nark Corp.) and drink water in a room at a temperature of 20±2° C. and at a humidity of 55±15% under illumination for 12 hours a day (from 7:00 to 19:00); the animals were kept under these conditions for at least one week before use. • 3) Method of Measurement
Anesthesia was introduced by intravenous administration of pentobarbital (30 mg/kg) and in order to maintain anesthesia, pentobarbital (5-6 mg/kg/hr) was injected continuously by means of an infusion pump (FP-W-100, Toyo Sangyo) through a polyethylene cannula retained in the right cephalic vein. The endotracheal cannula was inserted and the chest was opened at the left fourth intercostal space under artificial respiration in a tidal volume of 20 mL/kg at a rate of 18 breaths/min with an artificial respirator (SN-480-3 of Shinano Seisakusho). The left anterior descending coronary artery was carefully detached from the site of origin over a length of 1-2 cm and an occluding thread was passed through.
The chest was opened at the left fifth intercostal space and a 5-segment conductance catheter (CCS-108-DA, Unique Medical) was inserted from the cardiac apex so that all electrodes would be placed in the left ventricle. A catheter equipped with a 5 Fr microtip pressure transducer (pressure transducer catheter, Model MPC-500, MILLAR) was inserted into the left ventricle through the left carotid artery. The conductance catheter and the pressure transducer catheter inserted into the left ventricle were connected to a built-in amplifier in a ventricular volume-measuring instrument (Integral 3; VPR-1002, Unique Medical) and the changes in the left ventricular pressure (LVP) and the volume of the left ventricle were measured simultaneously. To determine the mean blood pressure (MBP), blood pressure was measured via a blood pressure amplifier (AP641G, Nihon Kohden) from the 5 Fr pressure transducer catheter inserted into the left femoral artery. Heart rate (HR) was measured with a cardiotachometer (AT-601G, Nihon Kohden) from the pulse waves of blood pressure.
The chest was opened again at the fourth intercostal space and in order to measure the cardiac output (CO(EMF)) (CO as determined by an electromagnetic blood flowmeter based method), a probe connected to an electromagnetic blood flowmeter (MFV-2100, Nihon Kohden) was fitted at the site of origin of the aorta. A spiral electrode was put in the ischemic region that occurred due to the occlusion of coronary artery and a surface electrocardiogram was recorded. A Doppler probe was fitted on the left anterior descending coronary artery and the blood flow was determined with a Doppler blood flowmeter (PD-20, Crystal Biotech). […]

## C[C@H](NC(=O)[C@@H](Cc1ccc2ccccc2c1)NC(=O)[C@@H](C)N)C(=O)N[C@@H](Cc1c[nH]c2ccccc12)C(=O)N[C@H](Cc1ccccc1)C(=O)N[C@@H](CCCCN)C(N)=O [KP-102, D-alanyl-3-(naphthalen-2-yl)-D-alanyl-L-alanyl-L-tryptophyl-D-phenylalanyl-L-lysinamide] (H-[dA][d2Nal]AW[dF]K-NH2)
  change in LVEDP: Neither of the control and KP-102 groups showed changes in LVPsys and LVEDP
  change in LVPsys: Neither of the control and KP-102 groups showed changes in LVPsys and LVEDP
  change in double product (RPP), index of myocardial oxygen consumption: Neither group experienced a change in RPP
  change in heart rate (HR): Neither of MBP and HR changed
  change in mean blood pressure (MBP): Neither of MBP and HR changed
  change in −dP/dtmax in comparison with control group: no significant change
5 minutes after the administration, n=5, p<0.05 vs control
  increase in stroke volume (SV) from baseline before administration: 5%
10 minutes after the administration, n=5, p<0.05 vs control
  maximum increase in cardiac output (CO) from baseline before administration: 7%
10 minutes after the administration, p<0.05 vs control for first 20 minutes
  increase in +dP/dtmax from baseline before administration: 7%
In 10 minutes, significant vs control
  maximal increase in ejection fraction (EF): 10%
p<0.05 vs control
  change in total peripheral resistance (TPR): dropped following the administration
